These results are taken from patent US20020132793A1, “Use of methylphenidate compounds to enhance memory” (priority 2000, published 2002).

One data set relates to IA memory in the rat. Kind of data set: Inhibitory Avoidance (IA) task in normal rats. The note with it: for retention on the IA task: FIG. 1. The format is in vivo. As for the experimental part: An exemplary passive avoidance test utilizes an apparatus that consists of a lit chamber that can be separated from a dark chamber by a sliding door. At training, the animal is placed in the lit chamber for some period of time, and the door is opened. The animal moves to the dark chamber after a short delay—the latency—that is recorded. Upon entry into the dark chamber, the door is shut closed and a foot shock is delivered. Retention of the experience is determined after various time intervals, e.g., 24 or 48 hours, by repeating the test and recording the latency. The protocol is one of many variants of the passive avoidance procedures (for review, see Rush (1988) Behav Neural Biol 50:255).
The Inhibitory Avoidance (IA) task is a well-studied behavioral paradigm which can provide the researcher with a consistent and long-lasting measure of memory. The paradigm consists of one training trial and one retention trial. Test articles may be administered to the rats either before or after training. Improved memory, as a result of test compound administration, is evident as increased latency on the retention trial. The objective of the following experiments was to investigate the effects of methylphenidate on IA memory in the rat.
In this experiment, rats were injected with three different doses of methylphenidate thirty minutes prior to training on the IA task.
Rats were injected with 5 mg/kg of methylphenidate and trained on the IA task.
In this experiment, the time of drug administration was varied in order to determine the optimal pre-training drug administration time.
This experiment was conducted in order to determine whether the enhanced retention observed in Experiment 2 was long-lasting. Rats received a second retention test one week after the first retention test. No additional training or drug was administered to the animals in the interim period.
In the next experiment, we investigated whether the performance of amnesic rats could be improved by administration of methylphenidate. In this experiment, control rats and rats with lesions of the fornix received injections of either saline or methylphenidate (5 mg/kg), and one hour later, were tested on the IA task.
Different doses of l-threo methylphenidate were administered to rats one hour prior to training on the Inhibitory Avoidance task. Retention for the task was tested 24 hours later. […] This experiment was subsequently replicated using a target dose of 5 mg/kg.
The effects of d-threo methylphenidate on memory consolidation as tested by the Inhibitory Avoidance task were also evaluated. Different doses of d-threo were administered to rats one hour prior to training on the Inhibitory Avoidance task.

The next data set has as its system locomotor activity. Kind of data set: Activity monitoring task (locomotor activity levels). As to the method:
The effects of d-threo methylphenidate on locomotor activity was investigated by injecting rats with saline or 2.5 mg/kg of d-threo methylphenidate, and testing them one hour later on the activity monitoring task.
In order to investigate the effects of l-threo methylphenidate on activity levels, rats were injected with 5 mg/kg of l-threo methylphenidate, and underwent activity monitoring one hour later.

The conditions of data set [1]: cited from earlier work.
For another data set, the system named is memory retention. Kind of data set: Providence Recognition Memory Test (Pictoral) in healthy human volunteers. The class given is in vivo. The note with it: PRMT (ascending) and RAVLT (descending) experiments together. An excerpt: (§1) The primary objective of the study is to identify the MTD and dose-limiting side-effects of l-threo methylphenidate hydrochloride. The secondary objectives included:
(§2) This was a randomised, double-blind, placebo-controlled, study including eight healthy male/female subjects. There were five treatment periods, each comprising two treatment days, with a 5-day washout period between dose levels. Subjects received four ascending doses of drug (a split dose on the first day of the treatment period and half the dose on the second day of the treatment period) and placebo. The placebo dose was randomly assigned to one of the five treatment periods. Each dose was taken orally.
(§3) The first dose level was administered on Day 1 and Day 2. After a 5-day washout period, subjects received the next dose level for 2 days. The period of washout and dose escalation was repeated until all five dose levels (four active dose levels and one placebo) were administered. Safety and tolerability was assessed after each treatment period to determine if subjects may advance to the next dose level.
Patients were assessed using the Providence Recognition Memory Test (Pictoral). Higher PRMT score indicates increased memory retention. […] This study was performed on Decending Plasma Curve of l-threo-methylphenidate. Higher RAVLT score indicates increased memory retention.

In another data set the test system is attention and learning. Description: Brief Visuospatial Memory Test in healthy human volunteers. The class given is in vivo.
Description: as §1, §2, §3
Higher BVMT score indicates increased attention and learning.

Data set [2] has as its system rats with lesions of the fornix. Kind of data set: Inhibitory Avoidance (IA) task in rats with lesions of the fornix. The class given is in vivo, rat. The note with it: 5 mg/kg, one hour before.
Where [3] appears, read: 2.5 mg/kg, tested one hour later, vs saline.
Where [4] appears, read: 5 mg/kg, one hour later, vs saline.

Consider `COC(=O)[C@H](c1ccccc1)[C@H]1CCCCN1` [d-threo methylphenidate, D-threo-methylphenidate], for which the “memory consolidation in the Inhibitory Avoidance task, dose finding” value in the data set with IA memory in the rat (2.5 mg/kg one hour prior to training, FIG. 6) is listed as “appears to be effective in improving memory”. Also, in the data set on IA memory in the rat (2.5 mg/kg, t(85)=2.403, p<0.0184, FIG. 7), the “memory in the Inhibitory Avoidance task, replication” value is reported as “significant memory enhancing effects”. In addition, in the data set on locomotor activity (setting [3]), the number of movements result was “No significant main effects”, the “number of stereotyped activities” value is on record as “No significant main effects” and the total distance moved result is “No significant main effects”. The number of rears entry with locomotor activity (2.5 mg/kg, tested one hour later, vs saline, F(1, 70)=19.60, p<0.0234) is recorded as “Significant main effects”. In addition, the movement time entry in the data set with locomotor activity (2.5 mg/kg, tested one hour later, vs saline, F(1, 70)=1304, p<0.0001) is on record as “Significant main effects”. In addition, the rest time result in the data set on locomotor activity (2.5 mg/kg, tested one hour later, vs saline, F(1, 70)=1322, p<0.0001) is recorded as “Significant main effects”. Further, the “hyperactivity (locomotor activity)” value in the data set on locomotor activity (2.5 mg/kg, tested one hour later, vs saline, FIG. 9) is “did not produce a large amount of hyperactivity”.

Consider `COC(=O)[C@@H](c1ccccc1)[C@@H]1CCCCN1` [l-threo methylphenidate, L-threo-methylphenidate], for which, in the data set with IA memory in the rat (5 mg/kg one hour prior to training, retention tested 24 hours later, FIG. 4), the “performance on the Inhibitory Avoidance task, dose finding” value is “appeared to be effective in enhancing performance”. The “performance of the Inhibitory Avoidance task, replication” value in the data set on IA memory in the rat (5 mg/kg one hour prior to training, t(59)=2.686, p<0.0094, FIG. 5) is reported as “significantly enhanced performance”. Also, the “half-life relative to dl-threo methylphenidate” value in data set [1] (strong evidence) is “even shorter half-life”. Besides, the “activity levels compared to saline injected controls” value in the data set with locomotor activity (5 mg/kg, activity monitoring one hour later, FIG. 8) is listed as “did not result in greatly increased activity levels”. For the same compound, the “locomotor hyperactivity, overall” value in the data set on locomotor activity (5 mg/kg, one hour later) is on record as “does not appear to result in serious locomotor hyperactivity”. In the data set with locomotor activity (setting [4]), the number of movements result is “no significant difference”, the “number of stereotyped activities” value was “no significant difference” and the total distance moved entry is listed as “no significant difference”. Moreover, the number of rears entry in the data set with locomotor activity (5 mg/kg, one hour later, vs saline, F(1, 70)=74.26, p<0.0001) is given as “small, but statistically significant main effects”. Besides, the movement time entry in the data set on locomotor activity (5 mg/kg, one hour later, vs saline, F(1, 70)=728, p<0.0033) is listed as “small, but statistically significant main effects”. In the data set on locomotor activity (5 mg/kg, one hour later, vs saline, F(1, 70)=730.6, p<0.0032), the time spent resting entry is given as “small, but statistically significant main effects”. In the data set with memory retention, the “memory enhancement, ascending vs descending portion of the plasma curve” value is listed as “more effective during the ascending portion of the plasma curve”. Further, the “enhancement of attention and learning by portion of the plasma curve” value with attention and learning (BVMT) is recorded as “more effective during the ascending portion of the plasma curve”. The “attention and learning, BVMT score” value in the data set with attention and learning (ascending blood concentration, oral, healthy volunteers, FIG. 14) is “can enhance attention and learning in patients”.

Take `COC(=O)C(c1ccccc1)C1CCCCN1` (racemic) [methylphenidate, methyl α-phenyl-2-piperidineacetate]: the entries for the “retention on the IA task” value in the data set with IA memory in the rat (5 mg/kg injected thirty minutes prior to training), with IA memory in the rat (10 mg/kg injected thirty minutes prior to training) and in the data set with IA memory in the rat (15 mg/kg injected thirty minutes prior to training) were “improved retention”, “no effect” and “no effect”, respectively. The “performance of normal rats on the IA task” value in the data set on IA memory in the rat (5 mg/kg, one hour before, FIG. 3) was “dramatically enhanced”. The “performance of normal rats vs all other experimental groups (Student-Newman-Keuls post hoc)” value with IA memory in the rat (5 mg/kg, one hour before, p<0.05) is “significantly enhanced relative to all other experimental groups”. Besides, the “optimal pre-training drug administration time” value with IA memory in the rat (5 mg/kg, time of drug administration varied) is “most effective when administered to the rats one hour prior to training”. In the data set on IA memory in the rat (5 mg/kg, unpaired t-test p<0.03, FIG. 2), the “retention of the IA task, second experiment” value is given as “significantly improved retention”. Besides, in the data set on IA memory in the rat (one week after the first retention test, no additional training or drug, t(54)=2.358, p<0.0220), the “performance at second retention test (long-term retention)” value was “still significantly enhanced”. The half-life (commonly how long it takes for the measured level to halve) in data set [1] (in adults) was 2 to 3 h. The “time to excretion after dosing” value in data set [1] (in adults) is 48 to 96 h. In addition, the “performance of the fornix lesion rats on the IA task” value in data set [2] (FIG. 3) is “appeared to improve”. The “performance of fornix animals vs normal, saline injected animals” value in data set [2] (post hoc test) is reported as “not significantly different from normal, saline injected animals”.
